# Measurements published in publication PMC5625157, “Lack of clinically important PK interaction between coformulated ledipasvir/sofosbuvir and rilpivirine/emtricitabine/tenofovir alafenamide” (Pharmacology Research & Perspectives, 2017).
# Read-outs that look alike come from different tables or passages of the source.
# What was measured:
# [1] = Phase 1 crossover drug-drug interaction study, plasma pharmacokinetics by HPLC-MS/MS, non-compartmental analysis; conditions: for effect of coadministered LDV/SOF on exposure (C max, AUC tau): LDV/SOF + R/F/TAF vs R/F/TAF; for effect of coadministered LDV/SOF on exposure (C max, AUC tau) / effect of coadministered R/F/TAF on exposure (C max, AUC tau): result in words; for C tau / AUC / Cmax / AUC(0-t): mean (%CV); for AUC / Cmax / Tmax / half-life / AUC(0-t): human; for AUC: AUCtau, healthy subjects, fed, multiple dose; for Cmax: C max; for Tmax: T max; for effect of coadministered R/F/TAF on exposure (C max, AUC tau): LDV/SOF + R/F/TAF vs LDV/SOF; for AUC(0-t): AUClast;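 on all read-outs here: blood sampled at steady state on final dosing day, predose through 24 h after dose, study drug given shortly after standardized breakfast, with isotopically labeled internal standards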
# [2] = in vivo; for C max / T max / t 1/2: human
# clinical = conditions: human, in vivo; for AUC: AUCtau, healthy subjects, fed, multiple dose; for AUC / Cmax: plasma, mean (%CV); for Cmax: C max; for half-life: median (first quartile, third quartile)
# [3] = cited from earlier work
# [4] = set-up: method as in German et al. 2014; conditions: ref German et al. 2014, cited from earlier work
# [5] = Reference: R/F/TAF (N = 42), plasma
# [6] = Test: LDV/SOF + R/F/TAF (N = 42), plasma
# [7] = plasma, oral, Reference: R/F/TAF (N = 42), plasma
# [8] = plasma, oral, Test: LDV/SOF + R/F/TAF (N = 42), plasma
# [9] = plasma, oral, t 1/2, Reference: R/F/TAF (N = 42), median (first quartile, third quartile)
# [10] = plasma, oral, t 1/2, Test: LDV/SOF + R/F/TAF (N = 42), median (first quartile, third quartile)
# [11] = test LDV/SOF + R/F/TAF vs reference R/F/TAF
# [12] = Test: LDV/SOF + R/F/TAF (N = 42)
# [13] = t 1/2, Reference: LDV/SOF (N = 41)
# [14] = t 1/2, Test: LDV/SOF + R/F/TAF (N = 42)
# [15] = Reference: LDV/SOF (N = 41), median (first quartile, third quartile)
# [16] = test LDV/SOF + R/F/TAF vs reference LDV/SOF
# [17] = in vivo, Reference: R/F/TAF (N = 42), plasma
# [18] = in vivo, Test: LDV/SOF + R/F/TAF (N = 42), plasma
compound,measurement,setting,value
"Nc1nc(=O)n([C@@H]2CS[C@H](CO)O2)cc1F [FTC, emtricitabine]","effect of coadministered LDV/SOF on exposure (C max, AUC tau)",[1],no effect
same,C tau,[1]; [5],88 (28) ng/mL
same,C tau,[1]; [6],89 (25) ng/mL
same,AUC,[1]; [7],10800 ng·h/mL
same,AUC,[1]; [8],10800 ng·h/mL
same,Cmax,[1]; [7],1710 ng/mL
same,Cmax,[1]; [8],1650 ng/mL
same,Tmax,"[1]; plasma, oral, Reference: R/F/TAF (N = 42), median (first quartile, third quartile)",2.5 h
same,Tmax,"[1]; plasma, oral, Test: LDV/SOF + R/F/TAF (N = 42), median (first quartile, third quartile)",3 h
same,half-life,[1]; [9],390 min
same,half-life,[1]; [10],306 min
same,GLSM ratio (test/reference) of AUCtau,[1]; [11],100%
same,GLSM ratio (test/reference) of C max,[1]; [11],97%
same,GLSM ratio (test/reference) of C tau,[1]; [11],102%
C[C@@]1(F)[C@H](O)[C@@H](CO)O[C@H]1n1ccc(=O)[nH]c1=O [GS‐331007],C max,[2],884 (14) ng/mL
same,T max,[2],"4.5 (4.0, 4.5) h"
same,t 1/2,[2],"16.7 (13.8, 21.9) h"
same,C tau,[2],340 (16) ng/mL
C[C@H](NP(=O)(O)OC[C@H]1O[C@@H](n2ccc(=O)[nH]c2=O)[C@](C)(F)[C@@H]1O)C(=O)O [GS‐566500],C max,[2],510 (20) ng/mL
same,T max,[2],"3.0 (2.0, 4.0) h"
same,t 1/2,[2],"2.2 (2.0, 2.5) h"
"COC(=O)N[C@H](C(=O)N1CC2(CC2)C[C@H]1c1ncc(-c2ccc3c(c2)C(F)(F)c2cc(-c4ccc5nc([C@@H]6[C@H]7CC[C@H](C7)N6C(=O)[C@@H](NC(=O)OC)C(C)C)[nH]c5c4)ccc2-3)[nH]1)C(C)C [LDV, ledipasvir]",AUC,clinical; Reference: LDV/SOF (N = 41),11600 ng·h/mL
same,AUC,clinical; [12],11900 ng·h/mL
same,Cmax,clinical; Reference: LDV/SOF (N = 41),647 ng/mL
same,Cmax,clinical; [12],658 ng/mL
same,half-life,clinical; [13],1960 min
same,half-life,clinical; [14],1880 min
same,"effect of coadministered R/F/TAF on exposure (C max, AUC tau)",[1],did not noticeably increase
same,"effect of coadministered R/F/TAF on exposure (C max, AUC tau)",[1]; listed as ledipasvir,no relevant effect
same,T max,[1]; [15],"4.5 (4.5, 5.0) h"
same,C tau,"[1]; Reference: LDV/SOF (N = 41), plasma",420 (46) ng/mL
same,C tau,[1]; [6],434 (47) ng/mL
same,GLSM ratio (test/reference) of AUCtau,[1]; [16],102%
same,GLSM ratio (test/reference) of C max,[1]; [16],101%
same,GLSM ratio (test/reference) of C tau,[1]; [16],102%
"Cc1cc(/C=C/C#N)cc(C)c1Nc1ccnc(Nc2ccc(C#N)cc2)n1 [RPV, rilpivirine]",Tmax,clinical,5 h
same,"effect of coadministered LDV/SOF on exposure (C max, AUC tau)",[1],no effect
same,C tau,[1]; [5],109 (32) ng/mL
same,T max,"[1]; Test: LDV/SOF + R/F/TAF (N = 42), median (first quartile, third quartile)","4.0 (4.0, 5.0) h"
same,C tau,[1]; [6],100 (26) ng/mL
same,AUC,[1]; [7],3040 ng·h/mL
same,AUC,[1]; [8],2860 ng·h/mL
same,Cmax,[1]; [7],203 ng/mL
same,Cmax,[1]; [8],197 ng/mL
same,half-life,[1]; [9],1970 min
same,half-life,[1]; [10],1820 min
same,GLSM ratio (test/reference) of AUCtau,[1]; [11],95%
same,GLSM ratio (test/reference) of C max,[1]; [11],97%
same,GLSM ratio (test/reference) of C tau,[1]; [11],93%
"CC(C)OC(=O)[C@H](C)N[P@](=O)(OC[C@H]1O[C@@H](n2ccc(=O)[nH]c2=O)[C@](C)(F)[C@@H]1O)Oc1ccccc1 [SOF, sofosbuvir]",AUC,clinical; Reference: LDV/SOF (N = 41),2910 ng·h/mL
same,AUC,clinical; [12],3070 ng·h/mL
same,Cmax,clinical; Reference: LDV/SOF (N = 41),1470 ng/mL
same,Cmax,clinical; [12],1390 ng/mL
same,half-life,clinical; [13],30 min
same,half-life,clinical; [14],30 min
same,"effect of coadministered R/F/TAF on exposure (C max, AUC tau)",[1],did not noticeably increase
same,"effect of coadministered R/F/TAF on exposure (C max, AUC tau)",[1]; listed as sofosbuvir,no relevant effect
same,T max,[1]; [15],"2.0 (1.5, 3.0) h"
same,GLSM ratio (test/reference) of AUCtau,[1]; [16],105%
same,GLSM ratio (test/reference) of C max,[1]; [16],96%
"CC(C)OC(=O)[C@H](C)N[P@](=O)(CO[C@H](C)Cn1cnc2c(N)ncnc21)Oc1ccccc1 [TAF, tenofovir alafenamide]",lower plasma tenofovir exposure compared to TDF 300 mg,"[3]; TAF 25 mg vs TDF 300 mg, reference not given",~ 90%
same,less plasma TFV exposures than TDF,"[3]; TAF vs TDF, ref Sax et al. 2015, Zack et al. 2016, Gilead Sciences Inc, 2017b",80–90%
same,"effect of coadministered LDV/SOF on exposure (C max, AUC tau)",[1],no effect
same,t 1/2,"[1]; Reference: R/F/TAF (N = 42), median (first quartile, third quartile)","0.5 (0.4, 0.6) h"
same,AUC(0-t),[1]; [17],277 ng·h/mL
same,AUC(0-t),[1]; [18],362 ng·h/mL
same,Cmax,[1]; [17],200 ng/mL
same,Cmax,[1]; [18],205 ng/mL
same,Tmax,"[1]; in vivo, Reference: R/F/TAF (N = 42), median (first quartile, third quartile)",1.5 h
same,Tmax,"[1]; in vivo, Test: LDV/SOF + R/F/TAF (N = 42), median (first quartile, third quartile)",1.8 h
same,GLSM ratio (test/reference) of AUClast,[1]; [11],132%
same,GLSM ratio (test/reference) of C max,[1]; [11],103%
"C[C@H](Cn1cnc2c(N)ncnc21)OCP(=O)(O)O [TFV, tenofovir]",C tau,[1]; [5],9 (25) ng/mL
same,C tau,[1]; [6],17 (22) ng/mL
same,AUC,[1]; [7],268 ng·h/mL
same,AUC,[1]; [8],467 ng·h/mL
same,Cmax,[1]; [7],16 ng/mL
same,Cmax,[1]; [8],25 ng/mL
same,half-life,[1]; [9],1920 min
same,half-life,[1]; [10],2670 min
same,GLSM ratio (test/reference) of AUCtau,[1]; [11],175%
same,GLSM ratio (test/reference) of C max,[1]; [11],162%
same,GLSM ratio (test/reference) of C tau,[1]; [11],185%
same,increase in TFV exposure,[4]; R/F/TDF coadministered with LDV/SOF compared to R/F/TDF alone,40%
same,TFV exposure,[4]; R/F/TDF coadministered with LDV/SOF,"4,780 ng·h/mL"
